Test results published in ChEMBL document CHEMBL1201862, “PubChem BioAssay data set” (2004).
Calls of active or inactive are those of the source.

Legend:
[1] = microbe, parasite or virus in culture; type: functional; settings: Mycobacterium tuberculosis
Streptokinase A = biological target: T1, Streptokinase A (Streptococcus pyogenes serotype M1, UniProt P10520); experiment: S. pyogenes streptokinase expression inhibitors, potency, dose response, plasminogen activation absorbance, OD405 (AID 1914); type: functional, Streptococcus pyogenes M1 GAS;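 also: secreted streptokinase activity via plasminogen activation per viability signal from cell pellet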
T1 sequence (P10520 whole entry): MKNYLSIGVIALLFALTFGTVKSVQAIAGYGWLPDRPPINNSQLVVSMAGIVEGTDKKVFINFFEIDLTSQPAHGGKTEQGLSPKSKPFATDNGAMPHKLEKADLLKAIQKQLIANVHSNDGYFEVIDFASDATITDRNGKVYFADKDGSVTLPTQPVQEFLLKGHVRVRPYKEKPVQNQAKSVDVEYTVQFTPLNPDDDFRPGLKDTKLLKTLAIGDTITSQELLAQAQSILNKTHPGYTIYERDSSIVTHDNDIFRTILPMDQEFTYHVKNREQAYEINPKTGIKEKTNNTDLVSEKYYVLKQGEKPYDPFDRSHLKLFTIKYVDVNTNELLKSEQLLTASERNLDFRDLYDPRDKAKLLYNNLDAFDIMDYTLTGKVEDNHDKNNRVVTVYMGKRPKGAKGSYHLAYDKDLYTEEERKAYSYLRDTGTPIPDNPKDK

H9c2 = experiment: cells; type: functional, cell-based; settings: Rattus norvegicus, H9c2, Myocardium
[2] = tested on: Streptococcus sp. 'group A'; experiment: growth inhibition of control SK(-) GAS strain, dose response, counter-screen for streptokinase expression inhibitor project, luminescence, kanamycin, BacTiterGlo, confirmation (AID 1900); type: functional, organism-based
Streptococcus = experiment: Group A Streptococcus viability loss, dose response, counter-screen for streptokinase expression inhibitor project, luminescence, BacTiterGlo (AID 1915); type: functional, organism-based;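 also: potency for reduction of bacterial viability or growth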
Protein skinhead-1 = biological target: T2, Protein skinhead-1 (Caenorhabditis elegans, UniProt P34707); type: functional
T2 sequence (P34707 whole entry): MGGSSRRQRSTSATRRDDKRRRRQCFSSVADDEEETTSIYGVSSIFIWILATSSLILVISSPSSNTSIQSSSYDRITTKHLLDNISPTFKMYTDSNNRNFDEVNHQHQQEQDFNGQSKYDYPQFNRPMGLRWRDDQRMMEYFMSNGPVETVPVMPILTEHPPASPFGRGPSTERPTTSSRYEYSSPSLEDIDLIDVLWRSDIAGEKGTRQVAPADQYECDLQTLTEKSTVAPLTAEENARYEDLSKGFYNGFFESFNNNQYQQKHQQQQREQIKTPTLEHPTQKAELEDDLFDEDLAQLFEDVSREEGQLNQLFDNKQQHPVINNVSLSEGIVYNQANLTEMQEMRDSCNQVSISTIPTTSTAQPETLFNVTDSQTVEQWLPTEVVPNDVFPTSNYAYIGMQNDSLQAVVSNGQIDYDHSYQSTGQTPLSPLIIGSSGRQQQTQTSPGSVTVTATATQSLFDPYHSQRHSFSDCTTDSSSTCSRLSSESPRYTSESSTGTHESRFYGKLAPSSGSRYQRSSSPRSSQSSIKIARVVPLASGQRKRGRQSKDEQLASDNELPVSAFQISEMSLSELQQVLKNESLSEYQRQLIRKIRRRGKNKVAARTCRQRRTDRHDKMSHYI

[3] = Shn3 3'UTR reporter inhibitors, dose response, cell-based, Clone20 osteoblasts, firefly luciferase, cherry-picked (AID 624132); type: functional;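 also: firefly luciferase luminescence from reporter carrying the Shn3 3'UTR in osteoblasts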
[4] = control 3'UTR Renilla luciferase suppression, dose response, counter-screen for Shn3 inhibitor project, cell-based, Clone20-Shn3RL, cherry-picked (AID 624133); type: functional
[5] = HepG2 cell cytotoxicity, dose response, cytotoxicity control for Shn3 inhibitor project, CellTiter-Glo, cherry-picked (AID 624134); type: functional, cell-based
Fatty acid synthase [6] = biological target: T3, Fatty acid synthase (Homo sapiens, UniProt P49327); experiment: FAS thioesterase domain inhibitors, dose response, biochemical, endpoint fluorescence intensity, uHTS hits (AID 624327); type: functional;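 also: fluorescence from hydrolysis of an O-methyl fluorescein acyl ester substrate by the enzyme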
Fatty acid synthase [7] = biological target: T3, Fatty acid synthase; experiment: FAS thioesterase domain inhibitors, dose response, biochemical, kinetic fluorescence intensity (AID 624326); type: functional;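 also: rate of fluorescence rise from hydrolysis of a fluorogenic O-methyl fluorescein ester substrate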
Nonstructural protein 1 = Nonstructural protein 1 (Influenza A virus, UniProt Q194T2); type: functional, Influenza A virus (A/California/07/2009(H1N1))
Cytochrome P450 2C19 = Cytochrome P450 2C19 (Homo sapiens, UniProt P33261); experiment: Cytochrome panel assay with activity outcomes. Panel member name: p450-cyp2c19 Compounds with AC50 equal or less than 10 uM are considered active; type: functional; settings: read-out: AC50
[8] = biological target: Voltage-dependent T-type calcium channel subunit alpha-1H (Homo sapiens, UniProt O95180); type: functional;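 also: channel activity triggered by adding a high calcium stimulation buffer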
[9] = biological target: T4, Polyadenylate-binding protein 1 (Homo sapiens, UniProt P11940); experiment: PABP1 MLLE–PAM2 binding inhibitor potency, dose response, biochemical, fluorescence polarization, FITC-PAM2 peptide (AID 602259); type: functional; settings: read-out: IC50_Mean
[10] = biological target: T4, Polyadenylate-binding protein 1; experiment: PABP1 MLLE–PAM2 interaction inhibitors, dose response, miRNA deadenylation inhibitor project, biochemical, fluorescence polarization, Cy5-PAM2 peptide, secondary (AID 602260); type: functional; settings: read-out: IC50_Mean
INS1 = experiment: beta cell apoptosis inhibitors, cytokine rescue, dose response, luminescence, retest (AID 449756); type: functional, cell-based; settings: Rattus norvegicus;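 also: cell death triggered by IL-1 beta plus TNF-alpha plus IFN-gamma mixture; protective hits raise ATP signal compared with cytokine alone wells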
[11] = Luminescence Cell-Based Dose Retest to Confirm Inhibitors of Cancer Stem Cells. [Related pubchem assays (depositor defined):AID2717, AID2721]; type: functional; settings: Homo sapiens
Cytochrome P450 2D6 = Cytochrome P450 2D6 (Homo sapiens, UniProt P10635);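 also: CYP2D6 member of a cytochrome P450 panel assay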
Cytochrome P450 1A2 = biological target: T5, Cytochrome P450 1A2 (Homo sapiens, UniProt P05177);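 also: PubChem cytochrome P450 panel assay, CYP1A2 panel member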
T5 sequence (P05177 whole entry): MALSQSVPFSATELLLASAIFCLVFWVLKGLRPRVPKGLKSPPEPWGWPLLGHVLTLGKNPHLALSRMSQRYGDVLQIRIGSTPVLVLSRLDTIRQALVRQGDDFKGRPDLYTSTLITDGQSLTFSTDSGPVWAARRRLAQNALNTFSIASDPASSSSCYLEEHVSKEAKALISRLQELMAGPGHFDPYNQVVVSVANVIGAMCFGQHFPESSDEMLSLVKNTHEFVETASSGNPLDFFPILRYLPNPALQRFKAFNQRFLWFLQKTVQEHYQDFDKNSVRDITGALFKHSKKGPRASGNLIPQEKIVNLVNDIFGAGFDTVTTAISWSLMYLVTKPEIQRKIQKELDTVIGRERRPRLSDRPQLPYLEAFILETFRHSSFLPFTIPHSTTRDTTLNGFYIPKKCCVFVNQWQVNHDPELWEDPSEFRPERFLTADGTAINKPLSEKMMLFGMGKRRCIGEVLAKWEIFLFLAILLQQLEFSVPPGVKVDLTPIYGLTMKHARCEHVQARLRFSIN

T4 sequence (P11940 whole entry): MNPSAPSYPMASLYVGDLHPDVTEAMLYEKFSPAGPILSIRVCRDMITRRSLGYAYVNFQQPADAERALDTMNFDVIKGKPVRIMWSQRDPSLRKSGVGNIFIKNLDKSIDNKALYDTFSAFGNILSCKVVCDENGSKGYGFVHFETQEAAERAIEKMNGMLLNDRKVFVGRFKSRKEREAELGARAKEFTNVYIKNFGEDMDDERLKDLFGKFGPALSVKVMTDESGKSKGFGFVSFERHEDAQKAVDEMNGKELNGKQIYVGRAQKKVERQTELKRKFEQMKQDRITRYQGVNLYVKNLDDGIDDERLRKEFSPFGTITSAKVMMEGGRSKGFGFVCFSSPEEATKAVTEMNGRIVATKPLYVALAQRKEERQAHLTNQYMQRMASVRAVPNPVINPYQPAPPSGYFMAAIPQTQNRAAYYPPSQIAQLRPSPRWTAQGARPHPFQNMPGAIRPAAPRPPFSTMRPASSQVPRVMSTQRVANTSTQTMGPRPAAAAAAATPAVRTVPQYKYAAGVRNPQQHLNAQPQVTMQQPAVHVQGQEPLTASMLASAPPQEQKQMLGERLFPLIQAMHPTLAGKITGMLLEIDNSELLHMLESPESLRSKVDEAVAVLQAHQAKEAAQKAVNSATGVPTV
T3 sequence (P49327 whole entry, the tested form may be a part): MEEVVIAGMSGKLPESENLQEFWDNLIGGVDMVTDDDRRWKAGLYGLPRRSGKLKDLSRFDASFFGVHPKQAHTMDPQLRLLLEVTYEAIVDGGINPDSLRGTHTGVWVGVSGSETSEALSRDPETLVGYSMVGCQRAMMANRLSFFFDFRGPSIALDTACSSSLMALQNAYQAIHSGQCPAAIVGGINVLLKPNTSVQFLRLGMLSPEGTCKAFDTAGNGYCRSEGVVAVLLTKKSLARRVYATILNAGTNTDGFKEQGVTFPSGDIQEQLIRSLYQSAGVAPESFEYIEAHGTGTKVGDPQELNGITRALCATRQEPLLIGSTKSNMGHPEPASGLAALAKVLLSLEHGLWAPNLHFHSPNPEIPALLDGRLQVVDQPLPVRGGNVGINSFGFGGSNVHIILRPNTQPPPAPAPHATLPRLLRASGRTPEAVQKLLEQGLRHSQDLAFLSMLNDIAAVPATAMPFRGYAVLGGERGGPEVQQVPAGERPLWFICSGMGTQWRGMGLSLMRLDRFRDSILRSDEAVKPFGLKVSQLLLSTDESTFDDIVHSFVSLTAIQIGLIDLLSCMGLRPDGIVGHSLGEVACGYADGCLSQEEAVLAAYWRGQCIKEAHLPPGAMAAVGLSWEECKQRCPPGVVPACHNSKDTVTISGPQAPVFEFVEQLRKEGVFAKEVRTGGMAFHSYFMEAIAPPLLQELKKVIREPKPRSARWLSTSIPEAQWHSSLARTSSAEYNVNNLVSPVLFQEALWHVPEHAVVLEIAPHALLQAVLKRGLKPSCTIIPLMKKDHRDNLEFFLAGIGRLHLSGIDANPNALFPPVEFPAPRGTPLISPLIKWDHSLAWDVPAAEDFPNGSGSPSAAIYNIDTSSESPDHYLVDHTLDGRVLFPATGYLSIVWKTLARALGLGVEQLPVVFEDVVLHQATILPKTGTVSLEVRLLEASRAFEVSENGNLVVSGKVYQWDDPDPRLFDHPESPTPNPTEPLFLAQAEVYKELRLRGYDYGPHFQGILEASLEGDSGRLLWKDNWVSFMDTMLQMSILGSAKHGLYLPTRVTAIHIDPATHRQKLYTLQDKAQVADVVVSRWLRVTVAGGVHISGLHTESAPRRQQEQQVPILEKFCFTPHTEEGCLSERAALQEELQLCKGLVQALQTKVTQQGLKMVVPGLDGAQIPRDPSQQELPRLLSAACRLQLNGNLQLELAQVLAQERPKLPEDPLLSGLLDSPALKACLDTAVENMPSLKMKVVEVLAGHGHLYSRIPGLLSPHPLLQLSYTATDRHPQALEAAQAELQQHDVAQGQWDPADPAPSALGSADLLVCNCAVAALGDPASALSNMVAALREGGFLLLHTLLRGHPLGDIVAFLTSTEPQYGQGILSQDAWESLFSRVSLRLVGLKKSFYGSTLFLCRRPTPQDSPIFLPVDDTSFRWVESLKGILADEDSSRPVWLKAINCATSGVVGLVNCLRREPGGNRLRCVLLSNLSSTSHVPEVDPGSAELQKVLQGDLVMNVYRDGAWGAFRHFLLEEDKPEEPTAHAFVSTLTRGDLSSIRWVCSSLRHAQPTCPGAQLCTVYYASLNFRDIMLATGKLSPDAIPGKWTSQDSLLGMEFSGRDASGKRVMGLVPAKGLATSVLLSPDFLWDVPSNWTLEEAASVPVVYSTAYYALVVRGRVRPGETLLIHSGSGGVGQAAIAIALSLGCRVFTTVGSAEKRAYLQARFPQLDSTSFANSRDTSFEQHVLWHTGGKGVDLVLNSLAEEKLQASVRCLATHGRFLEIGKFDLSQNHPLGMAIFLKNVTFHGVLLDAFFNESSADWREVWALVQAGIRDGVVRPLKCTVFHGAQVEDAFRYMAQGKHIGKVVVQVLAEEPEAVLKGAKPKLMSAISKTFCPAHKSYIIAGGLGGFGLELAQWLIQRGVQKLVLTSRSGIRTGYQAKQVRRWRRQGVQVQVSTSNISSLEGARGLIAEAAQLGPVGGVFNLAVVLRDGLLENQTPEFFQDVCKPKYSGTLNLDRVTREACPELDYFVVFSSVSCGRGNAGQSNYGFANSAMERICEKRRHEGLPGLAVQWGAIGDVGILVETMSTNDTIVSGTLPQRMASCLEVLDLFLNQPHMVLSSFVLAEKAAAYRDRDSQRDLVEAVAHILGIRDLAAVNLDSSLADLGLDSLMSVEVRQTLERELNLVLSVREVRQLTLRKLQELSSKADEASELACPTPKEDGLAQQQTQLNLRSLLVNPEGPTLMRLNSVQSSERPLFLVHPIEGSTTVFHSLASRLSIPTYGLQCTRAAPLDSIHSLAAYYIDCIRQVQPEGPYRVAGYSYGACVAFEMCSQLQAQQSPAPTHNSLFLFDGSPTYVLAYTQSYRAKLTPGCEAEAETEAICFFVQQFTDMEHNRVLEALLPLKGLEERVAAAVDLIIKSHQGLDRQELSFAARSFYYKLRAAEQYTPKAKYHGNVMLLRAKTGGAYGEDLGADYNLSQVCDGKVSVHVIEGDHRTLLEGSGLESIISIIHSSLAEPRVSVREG
Nonstructural protein 1, sequence (Q194T2 whole entry): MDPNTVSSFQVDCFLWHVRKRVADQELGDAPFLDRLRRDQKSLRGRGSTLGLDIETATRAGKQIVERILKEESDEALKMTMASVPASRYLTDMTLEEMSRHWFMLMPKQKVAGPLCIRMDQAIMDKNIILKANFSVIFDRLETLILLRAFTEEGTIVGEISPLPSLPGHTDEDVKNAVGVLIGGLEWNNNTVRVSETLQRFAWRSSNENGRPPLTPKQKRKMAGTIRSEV
Cytochrome P450 2C19, sequence (P33261 whole entry): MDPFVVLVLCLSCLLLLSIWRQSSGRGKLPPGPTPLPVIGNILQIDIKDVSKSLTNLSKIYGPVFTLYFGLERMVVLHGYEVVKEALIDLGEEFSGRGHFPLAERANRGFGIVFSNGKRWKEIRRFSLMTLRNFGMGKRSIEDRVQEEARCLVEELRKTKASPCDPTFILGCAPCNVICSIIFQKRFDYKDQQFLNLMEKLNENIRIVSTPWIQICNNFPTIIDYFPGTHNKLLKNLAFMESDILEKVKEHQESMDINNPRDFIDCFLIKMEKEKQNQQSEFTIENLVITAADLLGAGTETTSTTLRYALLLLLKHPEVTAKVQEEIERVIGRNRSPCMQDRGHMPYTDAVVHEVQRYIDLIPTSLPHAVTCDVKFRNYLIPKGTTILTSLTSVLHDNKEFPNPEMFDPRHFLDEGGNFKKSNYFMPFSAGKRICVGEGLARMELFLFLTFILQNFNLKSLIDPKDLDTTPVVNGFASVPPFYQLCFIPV
Cytochrome P450 2D6, sequence (P10635 whole entry): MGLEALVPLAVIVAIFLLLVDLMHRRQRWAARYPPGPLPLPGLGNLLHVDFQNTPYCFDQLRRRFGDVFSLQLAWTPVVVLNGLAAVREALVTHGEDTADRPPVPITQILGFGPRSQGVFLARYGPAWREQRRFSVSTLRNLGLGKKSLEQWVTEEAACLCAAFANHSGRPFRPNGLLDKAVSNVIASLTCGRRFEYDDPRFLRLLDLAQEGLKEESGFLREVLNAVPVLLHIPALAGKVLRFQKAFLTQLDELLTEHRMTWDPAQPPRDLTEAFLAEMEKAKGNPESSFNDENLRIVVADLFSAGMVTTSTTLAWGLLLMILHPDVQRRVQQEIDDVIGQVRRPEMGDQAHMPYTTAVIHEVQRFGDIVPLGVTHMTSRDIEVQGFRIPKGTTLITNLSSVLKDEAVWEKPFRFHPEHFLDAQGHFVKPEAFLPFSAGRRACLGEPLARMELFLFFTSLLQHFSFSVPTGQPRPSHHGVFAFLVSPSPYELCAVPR

## COc1ccc(-c2nc(NC(=O)c3[nH]c(C)c(C(C)=O)c3C)sc2C)cc1
[1]
  CC50: > 40 µM (active)

## CC(OC(=O)Cc1nnc(O)c2ccccc12)C(=O)Nc1ccc(Cl)cn1 (stereo not drawn)
Streptokinase A
  EC50: > 150 µM (not active)
H9c2
  IC50: 7.17 µM (active)
[2]
  EC50: 9.99 µM (active)
Streptococcus
  EC50: 23.1 µM (active)

## O=C(Nc1nc2c(s1)CCc1ccccc1-2)c1ccco1
Protein skinhead-1
  IC50: > 100 µM (inactive)

## Fc1ccc2[nH]c3c(NCc4ccccc4)ncnc3c2c1
[3]
  AC50: 3.09 µM (active)
[4]
  AC50: 13.1 µM (active)
[5]
  AC50: 30.1 µM (active)
[1]
  CC50: > 40 µM (active)

## O=[N+]([O-])c1ccc(Nc2ccccc2)cc1
Protein skinhead-1
  IC50: 12.7 µM (active)

## O=C(COc1ncnc2ccccc12)Nc1ccc(Cl)c([N+](=O)[O-])c1
Fatty acid synthase [6]
  IC50: 8.42 µM (active)
Fatty acid synthase [7]
  IC50: 6.52 µM (active)

## Cc1ccc(NC(=O)CSc2n[nH]c(-c3ccccn3)n2)cc1
Nonstructural protein 1
  IC50: 6.74 µM (active)

## O=C(Nc1ccccc1)N1CCCC(c2nc(-c3ccc(F)cc3)no2)C1 (stereo not drawn)
Cytochrome P450 2C19
  AC50: 39.8 µM (inconclusive)
[8]
  EC50: 1.52 µM (active)

## S=C(NC1CCCCC1)N(CCc1nc2ccccc2[nH]1)C1CCCC1
[8]
  EC50: 5.18 µM (active)

## Cc1[nH]c2ccccc2c1C1C(c2ccccc2)=NN=C(C(C)C)N1O (stereo not drawn)
[8]
  EC50: 16.1 µM (active)

## NC(=NOC(=O)CCC1CCCC1)c1cccc([N+](=O)[O-])c1
Fatty acid synthase [6]
  IC50: 7.47 µM (active)
Fatty acid synthase [7]
  IC50: 4.54 µM (active)

## CC(c1ccccc1)N1C(=O)c2cccnc2C1=O (stereo not drawn)
Protein skinhead-1
  IC50: > 100 µM (inactive)

## CCCCNC(=O)CN1C(=O)c2cccc(N)c2C1=O
[9]
  IC50: 31.6 µM (inactive)
[10]
  IC50: > 66 µM (inactive)

## CCOC(=O)N1CCN(S(=O)(=O)c2ccc(C(=O)NNc3nc4cc(C)cc(C)c4s3)cc2)CC1
Nonstructural protein 1
  IC50: > 100 µM (active)
INS1
  AC50: 3.67 µM (active)
[11]
  AC50: 3.69 µM (active)

## COC(=O)[C@@]12CCCCN1[C@H](c1ccc(-c3cc(C(C)=O)cs3)cc1)[C@H]1C(=O)N(C)C(=O)[C@H]12
H9c2
  IC50: > 79 µM (inactive)

## CC(Sc1nnc(NC2CCCCC2)s1)C(=O)Nc1ccc2c(c1)C(=O)c1ccccc1C2=O (stereo not drawn)
[1]
  CC50: 29.7 µM (active)

## CCCn1c(=O)c(C(=O)NCCc2ccc(Cl)cc2)c(O)c2ccccc21
H9c2
  IC50: > 79 µM (inactive)

## O=C(CSC(=S)N1CCCC1)c1cc(Br)cc(Br)c1O
[1]
  CC50: > 40 µM (active)

## C=C(C)CSc1ncc(-c2cccc(C(F)(F)F)c2)cn1
Fatty acid synthase [6]
  IC50: 13.3 µM (active)
Fatty acid synthase [7]
  IC50: 6.31 µM (active)

## Cc1ccc(N(C)C(=O)Oc2cccc3ccc(C)nc23)cc1
[8]
  EC50: 12.3 µM (active)

## O=C(CCn1c(=O)oc2ccccc21)N(Cc1ccccc1)c1ccccc1
H9c2
  IC50: > 79 µM (inactive)

## CCN(CC)S(=O)(=O)c1ccc(N(C)CCc2ccc(OC)c(OC)c2)nc1
Protein skinhead-1
  IC50: > 100 µM (inactive)

## COc1ccc(-c2cc(C(=O)N(C)CC(=O)Nc3cccc(F)c3)c3ccccc3n2)cc1
[1]
  CC50: 36.5 µM (active)

## O=C(CN(Cc1ccccc1)C(=O)c1cc2c(s1)CCC2)NCc1cccs1
[8]
  EC50: 5.32 µM (active)

## COC(=O)c1nc(-c2ccccc2)oc1N(C)C
Protein skinhead-1
  IC50: > 100 µM (inactive)

## O=C(COc1ccccc1)Nc1nnc(-c2ccc(Cl)s2)o1
[8]
  EC50: 25.7 µM (active)

## O=C(Oc1ccccc1)N1CCN(c2ccc(F)cc2)CC1
Protein skinhead-1
  IC50: 78.7 µM (inactive)

## O=[N+]([O-])c1cccc(-c2ccc(SCc3cccnc3)nn2)c1
Fatty acid synthase [6]
  IC50: 8.53 µM (active)
Fatty acid synthase [7]
  IC50: 8.99 µM (active)

## COc1ccc(-c2cc(-c3nnc(COC(=O)c4ccncc4)o3)c3ccccc3n2)cc1OC
H9c2
  IC50: 9.82 µM (active)

## S=C(NCc1ccccc1)NCC1COc2ccccc2O1 (stereo not drawn)
[8]
  EC50: 3.17 µM (active)

## C=CCNc1ncnc2sc(SC)nc12
Protein skinhead-1
  IC50: > 100 µM (inactive)

## CC(CC(=O)Nc1nnc(C(C)(C)C)s1)c1ccccc1 (stereo not drawn)
[9]
  IC50: > 66 µM (inactive)
[10]
  IC50: > 66 µM (inactive)

## CC(C)(C)NC(=O)/C(=C\C=C\c1ccccc1)NC(=O)c1ccc([N+](=O)[O-])cc1
Fatty acid synthase [6]
  IC50: 0.491 µM (active)
Fatty acid synthase [7]
  IC50: 0.462 µM (active)

## O=C(Nc1nccs1)c1ccc(-c2ccccc2[N+](=O)[O-])o1
Protein skinhead-1
  IC50: > 100 µM (inactive)

## CC(=O)c1ccc(NC(S)=NCCc2ccc(S(N)(=O)=O)cc2)cc1
[9]
  IC50: > 66 µM (inactive)
[10]
  IC50: > 66 µM (inactive)

## c1ccc(CN2c3ccccc3-c3nc4ccccc4n3C2c2ccccn2)cc1 (stereo not drawn)
Cytochrome P450 2D6
  AC50: 15.8 µM (inconclusive)
[8]
  EC50: 1.94 µM (active)

## Oc1ccccc1C=NNC(=S)Nc1ccc(F)cc1
Nonstructural protein 1
  IC50: 12.7 µM (active)

## O=C(NNS(=O)(=O)c1ccc([N+](=O)[O-])cc1)c1ccc2ccccc2c1O
Fatty acid synthase [6]
  IC50: 7.74 µM (active)
Fatty acid synthase [7]
  IC50: 6.99 µM (active)

## c1ccc(P(c2ccccc2)c2ccccn2)cc1
[9]
  IC50: > 66 µM (inactive)
[10]
  IC50: > 66 µM (inactive)

## COc1cccc(C(=O)NCC(=O)N2CCC3(CC2)NCCc2[nH]cnc23)c1
Protein skinhead-1
  IC50: > 100 µM (inactive)

## COc1cccc(/C=N/NC(=O)c2nc(-c3ccccc3)cc(-c3ccccc3)n2)c1
H9c2
  IC50: > 79 µM (inactive)
Cytochrome P450 2C19
  AC50: 0.794 µM (inconclusive)
Cytochrome P450 1A2
  AC50: 3.16 µM (inconclusive)
